Measurements taken from PMC8989062 (Journal of medicinal chemistry, 2022).
Entries after “also recorded” stand apart in the source; their conditions may differ.

Experiments:
HIV = settings: cited from earlier work
BRD4 BD1 E151A mutant = BRD4 BD1 E151A mutant (Homo sapiens, UniProt O60885, E151A); experiment: thermal shift assay; settings: TSA, 5 μM protein
[1] = test system: H3K122Ac (HAT activity of BRD4); experiment: immunofluorescence staining of H3K122Ac in hSAECs; format: cell-based, human
[2] = test system: H3K122Ac (HAT activity of BRD4); experiment: immunofluorescence staining of H3K122Ac in lung sections of mice; settings: n = 5
[3] = cited from earlier work
IL-6 = experiment: poly; settings: for activity at 10 µM: Homo sapiens, read-out: Residual activity rate, IL-6 (%)
[4] = test system: poly(I:C)-induced BRD4-dependent acute airway inflammation; experiment: murine model of poly; format: in vivo, C57BL/6J mice; settings: mice, 10 mg/kg po
CIG5 = experiment: poly; settings: Homo sapiens, read-out: Residual activity rate, CIG5 (%)
[5] = in vivo PK profiles in rats; settings: rat
[6] = test system: BET BD1 and BD2 bromodomains; settings: SPR; cited from earlier work
[7] = in vivo; cited from earlier work

Cc1sc2c(c1C)C(c1ccc(Cl)cc1)=N[C@@H](CC(=O)OC(C)(C)C)c1nnc(C)n1-2 [Compound 3, reference compound]
effect on latent HIV (HIV): activate latent HIV
binding to E151A mutant of BRD4 BD1 compared with WT (BRD4 BD1 E151A mutant): maintained a similar binding activity
poly(I:C)-induced H3K122Ac accumulation in hSAECs [1]: blocked
poly(I:C)-induced H3K122Ac accumulation in lung tissue of mice [2]: blocked

Cc1cc(/N=N/c2ccc(S(=O)(=O)NC3CCCC3)cc2)c(N)cc1O [Compound 7]
oral bioavailability [3]: 0.5%
AUC0–t ([3]; oral dose of 20 mg/kg): 0.104 µg·h/mL
Cmax ([3]; oral dose of 20 mg/kg): 0.036 µg/mL

O=C(Nc1ccc(C(F)(F)F)cc1)Nc1ccc(S(=O)(=O)N2CCC[C@H]2C(=O)Nc2ccccc2)cc1 [Compound 45, (S)-N-Phenyl-1-((4-(3-(4-(trifluoromethyl)phenyl)ureido)phenyl)-sulfonyl)pyrrolidine-2-carboxamide]
effect on HIV (HIV): epigenetically suppress HIV

O=C(Nc1ccc(C(F)(F)F)cc1)Nc1ccc(S(=O)(=O)N2CCC[C@H]2CO)cc1 [Compound 50, (S)-1-(4-((2-(Hydroxymethyl)pyrrolidin-1-yl)sulfonyl)phenyl)-3-(4 (trifluoromethyl)phenyl)urea]
activity at 10 µM (IL-6): 1.71 ± 0.13%

O=C(Nc1ccc(C(F)(F)F)cc1)Nc1ccc(S(=O)(=O)N2CCC[C@H]2CN2CCOCC2)cc1 [Compound 52, (S)-1-(4-((2-(Morpholinomethyl)pyrrolidin-1-yl)sulfonyl)phenyl)-3-(4-(trifluoromethyl)phenyl)urea]
activity at 10 µM (IL-6): 0.35 ± 0.03%
poly(I:C)-induced BRD4-dependent acute airway inflammation, overall [4]: more efficacious
poly(I:C)-induced neutrophilic inflammation around small- and medium-sized airways (histology) [4]: completely inhibited
inflammatory cytokines (IL-6, KC, MCP-1, RANTES) in BALF ([4]; n = 5, 10 mg/kg): significantly attenuated; also recorded: blocked
inflammatory gene expression (IL-6, KC, ISG54, CIG5) in lung tissues ([4]; n = 5, 10 mg/kg): significantly attenuated; also recorded: blocked
total cells and neutrophils in BALF ([4]; n = 5, 10 mg/kg): significantly attenuated; also recorded: blocked
binding to E151A mutant of BRD4 BD1 compared with WT (BRD4 BD1 E151A mutant): complete loss of its binding affinity
activity at 10 µM (CIG5): 0.34 ± 0.025%
poly(I:C)-induced H3K122Ac accumulation in hSAECs [1]: significantly blocked
improvement of oral bioavailability compared to compound 7 [5]: approximately 30 fold
poly(I:C)-induced H3K122Ac accumulation in lung tissue of mice [2]: significantly blocked

O=C(Nc1ccc(C(F)(F)F)cc1)Nc1ccc(S(=O)(=O)N2CCC[C@H]2CN2CCC(O)CC2)cc1 [Compound 53, (S)-1-(4-((2-((4-Hydroxypiperidin-1-yl)methyl)pyrrolidin-1-yl)-sulfonyl)phenyl)-3-(4-(trifluoromethyl)phenyl)urea]
fold more potent than compound 1, IL-6 (IL-6; ratio of IC50 values): 15.9 fold
fold more potent than compound 3, IL-6 (IL-6; ratio of IC50 values): 4.8 fold
poly(I:C)-induced H3K122Ac accumulation in hSAECs [1]: significantly blocked
poly(I:C)-induced H3K122Ac accumulation in lung tissue of mice [2]: significantly blocked

CC(=O)Nc1c(F)cc(C(=O)N[C@H]2CC[C@H](O)CC2)cc1O[C@@H](C)c1ccccc1 [GSK046]
selectivity BET BD2 over BD1 [6]: > 300 fold

COCc1nc2cnc3cc(-c4c(C)noc4C)c(OC[C@H]4CCNC4)cc3c2n1[C@H](C)c1ccccc1 [GSK778]
selectivity BET BD1 over BD2 [6]: > 130 fold

COc1cc(OC)c2c(=O)cc(-c3cc(C)c(OC[C@H](O)CN4CCN(C)CC4)c(C)c3)oc2c1 [ZL0516, (R)-2-(4-(2-hydroxy-3-(4-methylpiperazin-1-yl)propoxy)-3,5-dimethylphenyl)-5,7-di-methoxy-4H-chromen-4-one]
oral bioavailability F [7]: 35%
